Measured values from patent US10793547B2, “Modulator of the cystic fibrosis transmembrane conductance regulator, pharmaceutical compositions, methods of treatment, and process for making the modulator” (Vertex Pharmaceuticals Incorporated, priority 2016, dated 2020).

Legend:
F508del-CFTR = molecular target: T1, F508del-CFTR (Homo sapiens, UniProt P13569, DEL508-508); assay: Membrane potential optical (FLIPR) assay for F508del-CFTR modulators in NIH 3T3 cells; assay type: cell-based; conditions: NIH 3T3 cells expressing F508del; assay A1; read-out: CFTRdF508 Cor 3T3 FLIPR 384 CFTRdF508 MP 3T3 770 EC50
T1 construct: expressed in transfected cells
Description: Membrane Potential Optical Methods for Assaying Properties of F508del-CFTR Modulators
The assay utilizes fluorescent voltage sensing dyes to measure changes in membrane potential using a fluorescent plate reader (e.g., FLIPR III, Molecular Devices, Inc.) as a readout for increase in functional F508del in NIH 3T3 cells. The driving force for the response is the creation of a chloride ion gradient in conjunction with channel activation and concurrent with compound treatment by a single liquid addition step after the cells have previously been loaded with a voltage sensing dye.
A1. Identification of F508del-CFTR Modulators
To identify modulators of F508del, a fluorescence based HTS assay format was developed. This HTS assay utilizes fluorescent voltage sensing dyes to measure changes in membrane potential on the FLIPR III as a measurement for increase in gating (conductance) of F508del NIH 3T3 cells. The driving force for the response is the creation of a chloride ion gradient in conjunction with channel activation and concurrent with compound treatment by a single liquid addition step after the cells have previously been loaded with a voltage sensing dye.
Bath Solution #1: (in mM) NaCl 160, KCl 4.5, CaCl2 2, MgCl2 1, HEPES 10, pH 7.4 with NaOH, Glucose 10.
Chloride-free bath solution: Chloride salts in Bath Solution #1 (above) are substituted with gluconate salts.
NIH3T3 mouse fibroblasts stably expressing F508del were used for optical measurements of membrane potential. The cells were maintained at 37° C. in 5% CO2 and 90% humidity in Dulbecco's modified Eagle's medium supplemented with 2 mM glutamine, 10% fetal bovine serum, 1×NEAA, β-ME, 1× pen/strep, and 25 mM HEPES in 175 cm^2 culture flasks. For all optical assays, the cells were seeded at 12,000 cells/well in 384-well matrigel-coated plates and cultured for 18-24 hrs at 37° C. for the potentiator assay. For the correction assay, the cells were cultured at 37° C. with and without compounds for 18-24 hours.

human PXR = molecular target: T2, human PXR (Homo sapiens, UniProt O75469); assay: PXR assay: PXR mediated CYP3A4 induction in DPX-2 cell line; assay type: cell-based; conditions: DPX-2 cells
T2 construct: host or cells: DPX-2 cell line (derived from HepG2)
T2 sequence (O75469 1-434): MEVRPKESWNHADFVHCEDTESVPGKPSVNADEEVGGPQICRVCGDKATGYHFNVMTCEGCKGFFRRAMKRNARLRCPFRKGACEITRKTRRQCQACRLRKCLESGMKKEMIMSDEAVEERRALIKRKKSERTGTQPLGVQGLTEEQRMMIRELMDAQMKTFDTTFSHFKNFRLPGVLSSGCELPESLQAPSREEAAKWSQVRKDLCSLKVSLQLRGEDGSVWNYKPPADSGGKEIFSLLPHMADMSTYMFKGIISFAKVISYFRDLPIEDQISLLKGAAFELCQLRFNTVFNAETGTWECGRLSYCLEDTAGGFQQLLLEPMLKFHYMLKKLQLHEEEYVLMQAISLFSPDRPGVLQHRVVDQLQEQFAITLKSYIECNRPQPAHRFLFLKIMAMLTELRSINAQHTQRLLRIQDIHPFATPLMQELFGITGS
Method: D. Experimental Protocol for PXR Assay
The propensity for PXR mediated CYP3A4 induction is assessed using the DPX-2 cell line in vitro. This cell line, which has been licensed from Puracyp Inc. was derived from HepG2 cells and has been stably transfected with genes encoding human PXR as well as a modified luciferase reporter linked to the CYP3A4 promoter region and related distal and proximal enhancers.
The assay is run in 384 well format and each test article is administered in 11 doses ranging from 0.1 to 60 μM. On day 1, DPX-2 cells which have previously been expanded in-house and cryopreserved are thawed and seeded in tissue culture plates. The following day, media is changed and cells are cultured in media containing test article, vehicle control or the positive control compound, the clinically validated CYP3A4 inducer rifampicin. Cells are cultured in the presence of test article for 48 hours and then cell viability is assessed using fluorescence based assay (Cell Titer-Fluor, Promega) with an EnVision Plate Reader (PerkinElmer). Subsequently, CYP3A4 transactivation, which is proportional to luciferase activity, is measured by reading luminescense using the Promega One-Glo reagent system using the same plate reader.
Data processing within the Genedata software package allows reporting of max fold induction compared to vehicle control, an EC50 value for CYP3A4 inducers and an 11 point-dose response curve.

[1] = MDCK-Wild Type permeability, 96 well + 0.1% BSA; assay type: in vitro ADME; conditions: dog, MDCK, A-B direction, read-out: MDCK-Wild Type-Permeability 96 well + 0.1% BSA Papp compound (A-B)
Rat hepatocytes = assay: Hepatocyte clearance, rat hepatocytes; assay type: in vitro ADME; conditions: percent unchanged

T1 sequence (P13569 with tags, fused parts or gaps DEL508-508): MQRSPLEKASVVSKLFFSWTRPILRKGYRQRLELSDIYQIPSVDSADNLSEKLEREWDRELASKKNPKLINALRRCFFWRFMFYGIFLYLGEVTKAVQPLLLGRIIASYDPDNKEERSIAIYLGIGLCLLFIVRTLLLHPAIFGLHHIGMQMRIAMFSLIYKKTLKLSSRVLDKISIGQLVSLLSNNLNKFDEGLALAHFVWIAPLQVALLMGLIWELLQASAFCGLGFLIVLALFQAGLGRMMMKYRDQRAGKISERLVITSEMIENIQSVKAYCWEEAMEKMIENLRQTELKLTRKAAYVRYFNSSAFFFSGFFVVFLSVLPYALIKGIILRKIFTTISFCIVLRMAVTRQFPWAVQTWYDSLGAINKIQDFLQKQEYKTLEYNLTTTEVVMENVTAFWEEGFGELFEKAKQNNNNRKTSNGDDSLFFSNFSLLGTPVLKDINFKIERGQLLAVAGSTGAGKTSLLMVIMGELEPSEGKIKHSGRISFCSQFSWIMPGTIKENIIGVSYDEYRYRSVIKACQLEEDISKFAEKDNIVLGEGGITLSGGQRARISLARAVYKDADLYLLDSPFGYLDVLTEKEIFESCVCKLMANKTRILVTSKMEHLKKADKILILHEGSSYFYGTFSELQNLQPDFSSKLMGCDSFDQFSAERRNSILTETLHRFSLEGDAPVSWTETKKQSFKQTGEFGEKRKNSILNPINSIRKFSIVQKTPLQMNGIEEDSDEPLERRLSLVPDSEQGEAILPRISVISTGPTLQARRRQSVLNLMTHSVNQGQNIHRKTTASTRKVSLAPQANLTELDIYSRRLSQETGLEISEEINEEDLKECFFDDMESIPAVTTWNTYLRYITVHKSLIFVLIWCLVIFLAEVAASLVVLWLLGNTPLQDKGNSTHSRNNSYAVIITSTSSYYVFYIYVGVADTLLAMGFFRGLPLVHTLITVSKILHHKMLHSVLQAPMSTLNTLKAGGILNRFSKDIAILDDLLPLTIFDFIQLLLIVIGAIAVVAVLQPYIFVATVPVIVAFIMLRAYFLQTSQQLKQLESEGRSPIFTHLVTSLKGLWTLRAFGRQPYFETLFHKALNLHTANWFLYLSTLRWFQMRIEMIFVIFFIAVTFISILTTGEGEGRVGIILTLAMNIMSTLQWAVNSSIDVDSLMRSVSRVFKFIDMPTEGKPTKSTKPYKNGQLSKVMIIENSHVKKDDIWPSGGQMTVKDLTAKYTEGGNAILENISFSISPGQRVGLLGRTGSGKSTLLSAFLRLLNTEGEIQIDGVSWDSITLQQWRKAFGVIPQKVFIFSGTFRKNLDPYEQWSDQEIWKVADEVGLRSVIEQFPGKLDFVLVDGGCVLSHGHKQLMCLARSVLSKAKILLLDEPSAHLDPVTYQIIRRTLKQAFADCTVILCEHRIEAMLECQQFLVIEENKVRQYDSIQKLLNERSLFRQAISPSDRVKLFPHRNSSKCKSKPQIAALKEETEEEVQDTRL

Row | Compound | EC50 (F508del-CFTR) [nM] | CYP3A4 Induction-PXR human PXR internal Max % Activity (human PXR) [%] | Papp A→B [1] [×10⁻⁶ cm/s] | Hepatocyte clearance-Rat Rat hepatocytes CL pct_unchanged (Rat hepatocytes) [%]
1 | Cc1nn(C)c(C)c1S(=O)(=O)NC(=O)c1ccc(-n2ccc(OCCC3(C(F)(F)F)CC3)n2)nc1N1C[C@@H](C)CC1(C)C [Compound 18, 6-[3-[2-[1-(trifluoromethyl)cyclopropyl]ethoxy]pyrazol-1-yl]-N-(1,3,5-trimethylpyrazol-4-yl)sulfonyl-2-[(4S)-2,2,4-trimethylpyrrolidin-1-yl]pyridine-3-carboxamide] | 170 | 5 | 8 | 0
2 | C[C@@H]1CN(c2nc(-n3ccc(OCC4(C(F)(F)F)CC4)n3)ccc2C(=O)NS(=O)(=O)c2cn[nH]c2)C(C)(C)C1 [Compound 5, N-(1H-pyrazol-4-ylsulfonyl)-6-[3-[[1-(trifluoromethyl)cyclopropyl]methoxy]pyrazol-1-yl]-2-[(4S)-2,2,4-trimethylpyrrolidin-1-yl]pyridine-3-carboxamide] | 1300 | 0 | 0.3 | 33
3 | Cc1nn(C)cc1S(=O)(=O)NC(=O)c1ccc(-n2ccc(OCC3C4CCC3CC4)n2)nc1N1C[C@@H](C)CC1(C)C (stereo partly drawn) [Compound 52, N-(1,3-dimethylpyrazol-4-yl)sulfonyl-6-[3-(norbornan-7-ylmethoxy)pyrazol-1-yl]-2-[(4S)-2,2,4-trimethylpyrrolidin-1-yl]pyridine-3-carboxamide] | 170 | 2 | 2 | 18
4 | Cc1nn(C)c(C)c1S(=O)(=O)NC(=O)c1ccc(-n2ccc(OCC(C)(C)C(F)(F)F)n2)nc1N1C[C@@H](C)CC1(C)C [Compound 17, 6-[3-(3,3,3-trifluoro-2,2-dimethyl-propoxy)pyrazol-1-yl]-N-(1,3,5-trimethylpyrazol-4-yl)sulfonyl-2-[(4S)-2,2,4-trimethylpyrrolidin-1-yl]pyridine-3-carboxamide] | 170 | 3 | 3.8 | 19

The next lines start with the values.

Row | EC50 (F508del-CFTR) [nM] | CYP3A4 Induction-PXR human PXR internal Max % Activity (human PXR) [%] | Papp A→B [1] [×10⁻⁶ cm/s] | Hepatocyte clearance-Rat Rat hepatocytes CL pct_unchanged (Rat hepatocytes) [%] | Compound
5 | 300 | 0.9 | 2.1 | 53 | C[C@@H]1CN(c2nc(-n3ccc(OCC4(C(F)(F)F)CC4)n3)ccc2C(=O)NS(=O)(=O)c2cnn(C)c2)C(C)(C)C1 [Compound 6, N-(1-methylpyrazol-4-yl)sulfonyl-6-[3-[[1-(trifluoromethyl)cyclopropyl]methoxy]pyrazol-1-yl]-2-[(4S)-2,2,4-trimethylpyrrolidin-1-yl]pyridine-3-carboxamide]
6 | 400 | 10 | 3.2 | 62 | C[C@@H]1CN(c2nc(-n3ccc(OCC4(C(F)(F)F)CC4)n3)ccc2C(=O)NS(=O)(=O)c2cnn(C(C)(C)C)c2)C(C)(C)C1 [Compound 8, N-(1-tert-butylpyrazol-4-yl)sulfonyl-6-[3-[[1-(trifluoromethyl)cyclopropyl]methoxy]pyrazol-1-yl]-2-[(4S)-2,2,4-trimethylpyrrolidin-1-yl]pyridine-3-carboxamide]
